In one experiment the test system is Pantetheinase (vanin). The experiment in a line: Human Whole Blood assay. To be noted: pantethine substrate, pantothenic acid formation by RapidFire MS, read-out: HWB IC50. It counts as cell-based. As for the experimental part:
Human Whole Blood assay: Pantetheinase (vanin) converts panteheine into pantothenic acid and cysteamine. Accordingly, in the described protocol vanin activity is quantified by formation of pantothenic acid after pantetheine supplementation via pantethine. The assay is applicable to identify vanin inhibitors. Compound stocks are dissolved in DMSO at 10 mM. Further dilutions are performed in RPMI 1640 medium (Gibco, #A-10491-01) and final concentrations in the assay are 0.032 nM-500 nM.
Human blood is drawn into a blood bag (1% heparin, 50 I.E./mL). Blood is aliquoted into cavities of 96-deep-well plates at 290 μL and mixed with 10 μL compound solution or vehicle (30 sec at 1400 rpm on a shaker). Equilibration follows at room temperature, 250 rpm and for 30 min. The assay is starts by adding 10 μL of substrate solution (20 μM pantethine in 1 mM DTT, 0.0025% Brij-35, 50 mM HEPES, pH7.5) to each well, except for some blank wells which receive […] substrate buffer (1 mM DTT, 0.0025% Brij-35, 50 mM HEPES, pH7.5) only. Samples are thoroughly shaken (30 sec, 1400 rpm) and reaction is allowed to take place at room temperature, 250 rpm and for 5 min. The reaction is stopped by addition of a vanin tool inhibitor in excess (BI-1 total conc. 10 μM). Centrifugation of the plate follows at 4° C., 665 G for 10 min. Then the blood plasma samples (100 μL) are transferred into another 96-deep-well plate and proteins are precipitated (5 min on ice) by adding 100 μL of ice cold precipitation solution (1 μM labelled pantothenic acid (di-β-alanine-13C6,15N2 calcium salt, Sigma, #705837) in acetonitrile). Afterwards the plate is centrifuged (4° C., 3220 G, 10 min) and supernatants (50 μL) are collected into another 96-deep-well plate and mixed (10 sec, 1400 rpm) with 150 μL ice cold formic acid (0.1%, Carl Roth GmbH+Co.KG, #CP03.1). The formation of pantothenic acid is detected by RapidFire Mass Spectrometry. A TripleQuad 6500+ (ABSciex, Germany) is equipped with an LC-1290 system, a RapidFire autosampler (Agilent, Germany) and a C18 cartridge Type C 12 μL (Agilent Cat #G9526-80000). Mobile phase A is consisting of 0.09% formic acid and 0.01% trifluoroacetic acid in water and mobile phase B of 0.09% formic acid and 0.01% trifluoroacetic acid in acetonitrile/methanol/water=47.5/47.5/5.

In experiment [1] the target is T1, FLAG-tagged Vanin-1 (AA 22-493, T26I) (Homo sapiens, UniProt O95497, T26I).
T1 construct: FLAG-tagged Vanin-1 (AA 22-493, T26I, produced internally); FLAG; made in house
T1 sequence (O95497 22-493 T26I): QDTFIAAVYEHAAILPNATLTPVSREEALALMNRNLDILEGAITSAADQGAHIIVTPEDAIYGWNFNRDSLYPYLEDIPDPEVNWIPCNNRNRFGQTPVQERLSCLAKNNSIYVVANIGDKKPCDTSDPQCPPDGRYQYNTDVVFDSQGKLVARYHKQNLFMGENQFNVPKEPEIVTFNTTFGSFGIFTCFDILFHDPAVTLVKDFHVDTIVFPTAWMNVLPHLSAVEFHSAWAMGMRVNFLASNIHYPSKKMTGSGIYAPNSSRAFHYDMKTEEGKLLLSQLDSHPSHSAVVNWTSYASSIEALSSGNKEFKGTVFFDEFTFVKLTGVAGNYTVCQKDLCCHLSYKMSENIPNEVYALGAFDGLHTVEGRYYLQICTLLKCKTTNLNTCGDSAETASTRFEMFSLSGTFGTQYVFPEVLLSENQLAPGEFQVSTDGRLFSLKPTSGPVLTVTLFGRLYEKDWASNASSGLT
The experiment can be described thus: Vanin-1 enzymatic assay. It counts as biochemical. Particulars: 0.1 nM Vanin-1, 3 μM D-pantethine, pantothenic acid formation by RapidFire MS; geometric mean if multiple measurements; read-out: VNN-1 IC50. As for the experimental part:
The test compounds are dissolved in 100% DMSO at a concentration of 10 mM and in a first step diluted in DMSO to a concentration of 5 mM, followed by serial dilution steps in 100% DMSO. Dilution factor and number of dilution steps may vary according to needs. Typically 8 different concentrations by 1:5 dilutions are prepared, a further intermediate dilutions of the substances is carried out with assay buffer resulting in 1% final DMSO concentration in the assay.
0.1 nM of FLAG-tagged Vanin-1 (AA 22-493, T26I, produced internally) and test compounds are incubated at room temperature for 20 minutes in assay buffer (1 mM DTT, 0.0025% Brij-35, 50 mM HEPES, pH7.5). D-Pantethine (Sigma, Cat #P2125-5G) in assay buffer is added (final concentration 3 μM) and incubated for additional 30 minutes at room temperature. Total assay volume typically is 40 μl but might be adjusted according to needs. Reaction is stopped by adding equal volume of stop solution as the reaction mixture to reach 100 nM HD-pantothenic acid (as an internal standard) and 1% TFA. Assay plates are centrifuged for 2 minutes and the formation of pantothenic acid is detected by RapidFire Mass Spectrometry (mobile phase A: 0.1% formic acid and 0.01% trifluoroacetic acid in water; mobile phase B: 47.5% acetonitrile, 47.5% methanol, 0.1% formic acid and 0.01% trifluoroacetic acid in water) using a C18, 12 μL cartridge (Agilent Cat #G9205A).
The values given in Table I result from measurements of one or more samples. In case of multiple measurements the geometric mean values are given.

On to `CN(C(=O)C1(C#N)CC1)[C@H]1CCN(C(=O)c2ccc(NC(C)(C)c3ccccc3)nc2)C1` [Example 4.5], for which the figures for the IC50 (in the experiment on Pantetheinase (vanin); in experiment [1]) were 1.27 nM and 0.14 nM, respectively.
`CC(=O)N(C)[C@H]1CCN(C(=O)c2ccc(NC3CCc4ncccc43)nc2)C1` (stereo partly shown) [Example 1.37]: the values for the IC50 (in the experiment with Pantetheinase (vanin); in experiment [1]) were 1.07 nM and 0.61 nM, respectively.
Consider `COc1ccc(CNc2ccc(C(=O)N3CC[C@H](N(C)C(=O)C4CC4)C3)cn2)cn1` [Example 1.47], for which the IC50 (usually the concentration that gives 50% inhibition) is 5.93 nM with Pantetheinase (vanin) and 0.97 nM in experiment [1].
For `Cc1ncccc1CNc1ccc(C(=O)N2CC[C@H](N(C)C(=O)C3(C)CCC3)C2)cn1` [Example 1.18], the IC50 worked out at 1.77 nM in the experiment on Pantetheinase (vanin) and 0.22 nM in experiment [1].
For the molecule `CC(=O)N(C)[C@H]1CCN(C(=O)c2ccc(N[C@@H](C)c3cccc(C#N)c3)nc2)C1` [Example 1.12], the IC50 in the experiment on Pantetheinase (vanin) worked out at 6.13 nM; in experiment [1] it was 0.16 nM.
`CC(=O)N(C)[C@H]1CCN(C(=O)c2ccc(N[C@@H](C)c3ccc(Cl)cc3)nc2)C1` [Example 9.4]: the IC50 in the experiment with Pantetheinase (vanin) amounted to 4.23 nM; in experiment [1] it was 0.27 nM.
Taken in the same sequence, the figures for `CC(=O)N(C)[C@H]1CCN(C(=O)c2ccc(NCc3ccc(Cl)cc3)nc2)C1` [Example 4.1, N-[(3S)-1-(6-{[(4-Chlorophenyl)methyl]amino}pyridine-3-carbonyl)pyrrolidin-3-yl]-N-methylacetamide] were 5.88 nM and 0.68 nM.
In the case of `CN(C)c1ccc(CNc2ccc(C(=O)N3CC[C@H](N(C)C(=O)C4CC4)C3)cn2)cn1` [Example 1.44], the IC50 in the experiment with Pantetheinase (vanin) amounted to 7.03 nM; in experiment [1], 0.91 nM.
In the case of `CN(C(=O)C1CC(F)(F)C1)[C@H]1CCN(C(=O)c2ccc(NC(C)(C)c3cccnc3)nc2)C1` [Example 8.2], the IC50 with Pantetheinase (vanin) was found to be 1 nM; in experiment [1], 0.08 nM.
On to `CN(C(=O)C1CC1)[C@H]1CCN(C(=O)c2ccc(NCc3cncc(F)c3)nc2)C1` [Example 1.38], for which the IC50 in the experiment with Pantetheinase (vanin) was 5.19 nM; in experiment [1], 0.65 nM.
On to `CC(=O)N(C)[C@H]1CCN(C(=O)c2ccc(N[C@@H](C)c3ccc(F)cc3)nc2)C1` [Example 9.5], for which the values for the IC50 (in the experiment on Pantetheinase (vanin); in experiment [1]) were 2.19 nM and 0.4 nM, respectively.
For the molecule `CC(=O)N(C)[C@H]1CCN(C(=O)c2ccc(NC(C)(C)c3ccccc3)nc2)C1` [Example 4.4], the IC50 stood at 1.34 nM with Pantetheinase (vanin) and 0.12 nM in experiment [1].
For `CC(=O)N(C)[C@H]1CCN(C(=O)c2ccc(NC(C)(C)c3cccnc3)nc2)C1` [Example 8.7], the results for the concentration for half-maximal inhibition (IC50) (with Pantetheinase (vanin); in experiment [1]) were 3.29 nM and 0.16 nM, respectively.
Taken in the same sequence, the figures for `CC(=O)N(C)[C@H]1CCN(C(=O)c2ccc(N[C@@H](C)c3ccc(C(F)(F)F)nc3)nc2)C1` [Example 9.1, N-Methyl-N-[(3S)-1-(6-{[(1S)-1-[6-(trifluoromethyl)pyridin-3-yl]ethyl]amino}pyridine-3-carbonyl)pyrrolidin-3-yl]acetamide] were 2.78 nM and 0.39 nM.
Turning to `O=C(c1ccc(NCc2ccc(Cl)cc2)nc1)N1CC[C@H](N2CCCC2=O)C1` [Example 8.9], the half-inhibitory concentration (IC50) with Pantetheinase (vanin) was 4.89 nM; in experiment [1] it was 0.32 nM.
`CC(=O)N(C)[C@H]1CCN(C(=O)c2ccc(N[C@@H](C)c3ccc(F)cc3F)nc2)C1` [Example 9.6]: the results for the IC50 (with Pantetheinase (vanin); in experiment [1]) were 5.03 nM and 0.42 nM, respectively.
`CN(C(=O)C1(C)CCC1)[C@H]1CCN(C(=O)c2ccc(NCc3cccnc3)nc2)C1` [Example 1.14]: the IC50 in the experiment with Pantetheinase (vanin) came to 8.7 nM; in experiment [1] it was 0.18 nM.
For `CN(C(=O)C1CC1)[C@H]1CCN(C(=O)c2ccc(NCc3ccc(N)nc3)nc2)C1` [Example 1.24], the values for the IC50 (in the experiment with Pantetheinase (vanin); in experiment [1]) were 1.44 nM and 0.27 nM, respectively.
Taken in the same sequence, the figures for `CN(C(=O)C1CC1)[C@H]1CCN(C(=O)c2ccc(NCc3cccnc3)nc2)C1` [Example 1.8] were 1.69 nM and 0.12 nM.
Take `CC(=O)N(C)[C@H]1CCN(C(=O)c2ccc(NCc3cccc(Cl)c3)nc2)C1` [Example 1.3]: the IC50 with Pantetheinase (vanin) is 1.03 nM; in experiment [1], 1.02 nM.
Turning to `COc1ccncc1CNc1ccc(C(=O)N2CC[C@H](N(C)C(=O)C3(C)CCC3)C2)cn1` [Example 1.22], the results for the IC50 (in the experiment on Pantetheinase (vanin); in experiment [1]) were 2.51 nM and 0.24 nM, respectively.
Turning to `CC(=O)N(C)[C@H]1CCN(C(=O)c2ccc(N[C@@H](C)c3ccc(Cl)nc3)nc2)C1` [Example 1.11, N-[(3S)-1-(6-{[(1S)-1-(6-chloropyridin-3-yl)ethyl]-amino}pyridine-3-carbonyl)pyrrolidin-3-yl]-N-methylacetamide], the figures for the IC50 (in the experiment on Pantetheinase (vanin); in experiment [1]) were 1.9 nM and 0.15 nM, respectively.
On to `CN(C(=O)C1CC1)[C@H]1CCN(C(=O)c2ccc(NC3(c4cncnc4)CC3)nc2)C1` [Example 8.6], for which the IC50 in the experiment with Pantetheinase (vanin) worked out at 1.84 nM; in experiment [1], 0.15 nM.
`CC(=O)N(C)[C@H]1CCN(C(=O)c2ccc(NCc3cccnc3)nc2)C1` [Example 7.1, N-Methyl-N-[(3S)-1-(6-{[(pyridin-3-yl)methyl]amino}pyridine-3-carbonyl)pyrrolidin-3-yl]acetamide]: the IC50 with Pantetheinase (vanin) turned out to be 1.78 nM; in experiment [1], 0.13 nM.
Take `CC(=O)N(C)[C@H]1CCN(C(=O)c2ccc(N[C@@H](C)c3ccccc3)nc2)C1` [Example 1.2]: the values for the IC50 (in the experiment on Pantetheinase (vanin); in experiment [1]) were 4.51 nM and 0.2 nM, respectively.
On to `COc1ccncc1CNc1ccc(C(=O)N2CC[C@H](N(C)C(=O)C3CC3)C2)cn1` [Example 1.10], for which the IC50 in the experiment on Pantetheinase (vanin) came out at 1.24 nM; in experiment [1] it was 0.14 nM.

These data come from patent publication US12240828B2, “Heteroaromatic compounds as vanin inhibitors” (Boehringer Ingelheim International GmbH, priority 2018, dated 2025).
